Measurements from patent US20030018027A1 (priority 2001, published 2003).

What was measured:
kainate receptors = details: cited from earlier work
excessive barking [1] = experiment: Excessive barking of a Pomeranian with separation anxiety during 30 minutes after every one left the room; format: in vivo, dog (Pomeranian)
Procedure: The following experiment was performed by using an 11 years old Pomeranian (4.5 kg weight) in which a symptom of separation anxiety was confirmed.
The experimental animal was fed in a room which was equipped with an air conditioner keeping 22° C. and were provided with 200 g of canned dog food (Science Diet Maintenance, beef can, Japan Hills Colgate ) twice per day in the morning and in the evening. Water was freely provided. The animals had been habituated in the experimental cages before recording the frequency of excessive barking with a set up video camera. Excessive barking during 30 minutes after every one left the room was recorded for 2 days. The barking frequency on day 1 was 178 times and 203 times on day 2. […] The barking frequency for that recording was 0 (zero).

excessive barking [2] = experiment: Excessive barking of beagles during 5 minutes before feeding after intravenous SKF97541; format: in vivo, dog (beagles); details: mean and standard error
Procedure: Two ovariectomized healthy female beagles (10 kg) of 2 years old were used for the following experiments.
(§1) The experiments was performed for seven (7) days as one cycle and the data were recorded, which were repeated for 3 months (12 cycles). The data were statistically processed. The experimental dogs were fed in a room which was equipped with an air conditioner keeping 22° C. During the first 6 days, the animals were fed with 400 g of food (Science Diet Maintenance, dry, Japan Hills Colgate) at 4 o'clock every day. Water was freely provided. The animals were habituated in the experimental cages. The seventh (7th) day in each cycle, the condition was kept except that the indicated amount of SKF97541 ([…] receptor agonist) was intravenously administrated at 2 o'clock P.M. The frequency of barking during 5 minutes before feeding was recorded every day by a video camera. The ratio of the frequency of barking on the day where the animals were received SKF97541 to the mean values of the barking frequency during the first 6 days where the animals were not received SKF97541 is indicated as percentages in Table 1 and FIG. 1.

[3] = General symptom of animals, beagle experiment; format: in vivo, dog (beagles); details: beagles, intravenous SKF97541
Procedure: as §1

O=C1N=c2cc([N+](=O)[O-])c([N+](=O)[O-])cc2=NC1=O [DNQX, 6,7-dinitroquinoxaline-2,3-dione]
inhibition of running activity induced by kainate (kainate receptors; rat): inhibited

NCCCC(=O)O [GABA, γ-aminobutyric acid]
barking frequency during 30 minutes after every one left the room (excessive barking [1]; 150 mg powdered GABA mixed with canned dog food, oral, untreated days 178 and 203 times): 0

CP(=O)(O)CCCN [SKF97541, 3-aminopropyl(methyl)phosphinic acid]
(frequency of barking on the administrated day) / (frequency of barking on non-administrated days) (excessive barking [2]; amount of administrated SKF97541 0.025 (unit not given)): 118.2 ± 0.0%
(frequency of barking on the administrated day) / (frequency of barking on non-administrated days) (excessive barking [2]; amount of administrated SKF97541 0.05 (unit not given)): 90.2 ± 6.2%
(frequency of barking on the administrated day) / (frequency of barking on non-administrated days) (excessive barking [2]; amount of administrated SKF97541 0.1 (unit not given)): 44.0 ± 1.1%
(frequency of barking on the administrated day) / (frequency of barking on non-administrated days) (excessive barking [2]; amount of administrated SKF97541 0.2 (unit not given)): 8.8 ± 8.8%
(frequency of barking on the administrated day) / (frequency of barking on non-administrated days) (excessive barking [2]; amount of administrated SKF97541 0.5 (unit not given)): 0%
barking frequency during 30 minutes after every one left the room (excessive barking [1]; SKF97541 intravenous 0.05 mg/kg body weight): did not bark
barking frequency during 30 minutes after every one left the room (excessive barking [1]; SKF97541 intravenous 0.1 mg/kg body weight): did not bark
general symptom of animals [3]: no notable point regarding to the general symptom of animals was observed

C=C(C)[C@H]1CN[C@H](C(=O)O)[C@H]1CC(=O)O [kainate]
induction of running activity in rat (kainate receptors): induced
